*1 amine or outer side, *2 acyl side, *3 side chain or, on linkers, in order; H or OH if unused. Where a SMILES comes first, the peptide text is derived from it. Side-chain parts run from the residue outwards. [ ]: non-standard residue; d: D form. The star is where a group is joined. PEG12 = NCCOCCOCCOCCOCCOCCOCCOCCOCCOCCOCCOCCOCCC(=O)O; γGlu = O=C(O)[C@H](CCC(=O)[*:2])N[*:1]; Stearoyl = CCCCCCCCCCCCCCCCCC(=O)*; Palmitoyl = CCCCCCCCCCCCCCCC(=O)*; αMeK = C[C@](N)(CCCCN)C(=O)O; Nle = CCCC[C@H](N)C(=O)O; AEEA = NCCOCCOCC(=O)O; Aib = CC(C)(N)C(=O)O

The target in the test is T1, RXFP1 (Homo sapiens, UniProt Q9HBX9).
T1 construct: OVCAR5 cells expressing endogenous RXFP1; endogenous in cells; host or cells: OVCAR5 cells
T1 sequence (Q9HBX9 1-757): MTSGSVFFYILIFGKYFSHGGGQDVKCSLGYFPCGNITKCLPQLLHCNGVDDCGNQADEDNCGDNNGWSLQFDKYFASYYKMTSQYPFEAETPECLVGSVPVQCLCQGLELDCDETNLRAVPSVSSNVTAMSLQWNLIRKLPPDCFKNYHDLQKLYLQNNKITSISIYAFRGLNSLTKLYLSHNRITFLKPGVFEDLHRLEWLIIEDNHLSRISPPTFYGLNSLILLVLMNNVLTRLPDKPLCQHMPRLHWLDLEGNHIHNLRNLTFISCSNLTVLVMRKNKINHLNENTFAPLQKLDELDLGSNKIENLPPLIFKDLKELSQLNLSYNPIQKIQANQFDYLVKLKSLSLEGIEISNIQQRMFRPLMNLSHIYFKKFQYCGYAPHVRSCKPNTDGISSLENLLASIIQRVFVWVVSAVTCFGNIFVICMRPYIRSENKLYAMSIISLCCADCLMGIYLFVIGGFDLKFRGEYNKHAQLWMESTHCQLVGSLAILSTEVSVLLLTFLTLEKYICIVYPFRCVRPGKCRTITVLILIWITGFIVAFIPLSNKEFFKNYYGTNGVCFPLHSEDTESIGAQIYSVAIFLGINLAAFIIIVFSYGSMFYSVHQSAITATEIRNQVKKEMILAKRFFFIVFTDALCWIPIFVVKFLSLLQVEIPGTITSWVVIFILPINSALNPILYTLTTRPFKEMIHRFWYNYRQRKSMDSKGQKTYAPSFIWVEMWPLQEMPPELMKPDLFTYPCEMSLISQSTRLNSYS
As to the kind of experiment: OVCAR5 cAMP assay (HTRF), RXFP1 agonist activity. The format is cell-based. The note with it: for EC50: OVCAR5 cells, cAMP HTRF, read-out: EC50 (nM), OVCAR 5 cells (cAMP); for Emax: OVCAR-5, maximal cAMP relative to H2-relaxin maximum (100%), read-out: EMax, OVCAR 5 cells (cAMP). A digest of the protocol:
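OVCAR5 cells (endogenous RXFP1) pretreated 40 min at 37° C with 1 mM IBMX, then exposed to peptides in serum-free medium for 30 min at 37° C. Lysate cAMP read by HTRF; EC50 from variable-slope sigmoidal fit; Emax as % of H2-relaxin maximal cAMP in same run.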
(In general: Changes in cAMP serve as a functional read-out for many G protein-coupled receptors.)

What is called EC50 is the concentration that produces a half-maximal response. Broadly, the Emax is the maximal effect, on the per cent scale that the assay sets. Consider `CCCCCCCCCCCCCCCC(=O)N[C@@H](CCC(=O)N[C@@H](CCC(=O)N[C@@H](CCC(=O)N[C@@H](CCC(=O)NCCOCCOCC(=O)NCCOCCOCC(=O)NCCOCCOCC(=O)NCCCC[C@H](NC(=O)[C@H](CCCCNC(C)=O)NC(=O)[C@H](CCCCN)NC(=O)[C@H](CCCNC(=N)N)NC(=O)[C@](C)(CCCCN)NC(=O)[C@H](CO)NC(=O)[C@H](Cc1c[nH]c2ccccc12)NC(=O)[C@@H](NC(=O)[C@H](CO)NC(=O)[C@H](CCCC)NC(=O)CNC(=O)[C@H](CCC(=O)O)NC(=O)C(C)(C)NC(=O)C(C)(C)NC(=O)[C@@H](NC(=O)[C@H](CCCCNC(C)=O)NC(=O)[C@H](C)NC(=O)[C@H](CCCNC(=N)N)NC(=O)[C@@H](NC(=O)[C@H](CCCCN)NC(=O)[C@H](CCC(=O)O)NC(=O)[C@H](CCCNC(=N)N)NC(=O)CNC(=O)[C@H](CCC(=O)O)NC(=O)[C@H](CC(C)C)NC(C)=O)C(C)C)[C@@H](C)CC)[C@@H](C)O)C(N)=O)C(=O)O)C(=O)O)C(=O)O)C(=O)O` [compound 65] (Ac-LEGREKVRAK(Ac)I[Aib][Aib]EG[Nle]STWS[αMeK]RKK(Ac)K([AEEA-AEEA-AEEA-γGlu-γGlu-γGlu-γGlu-Palmitoyl])-NH2), for which the EC50 was 0.12 nM and the Emax stood at 93%.
With `CCCCCCCCCCCCCCCC(=O)N[C@@H](CCC(=O)N[C@@H](CCC(=O)N[C@@H](CCC(=O)NCCOCCOCCOCCOCCOCCOCCOCCOCCOCCOCCOCCOCCC(=O)NCCCC[C@H](NC(=O)[C@H](CCCCNC(C)=O)NC(=O)[C@H](CCCCN)NC(=O)[C@H](CCCNC(=N)N)NC(=O)C(C)(C)NC(=O)[C@H](CO)NC(=O)[C@H](Cc1c[nH]c2ccccc12)NC(=O)[C@@H](NC(=O)[C@H](CO)NC(=O)[C@H](CCCC)NC(=O)CNC(=O)[C@H](CCC(=O)O)NC(=O)C(C)(C)NC(=O)C(C)(C)NC(=O)[C@@H](NC(=O)[C@H](CCCCNC(C)=O)NC(=O)[C@H](C)NC(=O)[C@H](CCCNC(=N)N)NC(=O)[C@@H](NC(=O)[C@H](CCCCN)NC(=O)[C@H](CCC(=O)O)NC(=O)[C@H](CCCNC(=N)N)NC(=O)CNC(=O)[C@H](CCC(=O)O)NC(=O)[C@H](CC(C)C)NC(C)=O)C(C)C)[C@@H](C)CC)[C@@H](C)O)C(N)=O)C(=O)O)C(=O)O)C(=O)O` [compound 66] (Ac-LEGREKVRAK(Ac)I[Aib][Aib]EG[Nle]STWS[Aib]RKK(Ac)K([PEG12-γGlu-γGlu-γGlu-Palmitoyl])-NH2), the Emax is 83%.
On the same count and under the same terms, the result for `CCCCCCCCCCCCCCCCCC(=O)N[C@@H](CCC(=O)N[C@@H](CCC(=O)N[C@@H](CCC(=O)NCCOCCOCC(=O)NCCOCCOCC(=O)NCCCC[C@H](NC(=O)[C@H](CCCCN)NC(=O)[C@H](CCCNC(=N)N)NC(=O)C(C)(C)NC(=O)[C@H](CO)NC(=O)[C@H](Cc1c[nH]c2ccccc12)NC(=O)[C@@H](NC(=O)[C@H](CO)NC(=O)[C@H](CCCC)NC(=O)CNC(=O)[C@H](CCC(=O)O)NC(=O)C(C)(C)NC(=O)C(C)(C)NC(=O)[C@@H](NC(=O)[C@H](CCC(N)=O)NC(=O)[C@H](C)NC(=O)[C@H](CCCNC(=N)N)NC(=O)[C@@H](NC(=O)[C@H](CCCCN)NC(=O)[C@H](CCC(=O)O)NC(=O)[C@H](CCCNC(=N)N)NC(=O)CNC(=O)[C@H](CCC(=O)O)NC(=O)[C@H](CC(C)C)NC(C)=O)C(C)C)[C@@H](C)CC)[C@@H](C)O)C(N)=O)C(=O)O)C(=O)O)C(=O)O` [compound 67] (Ac-LEGREKVRAQI[Aib][Aib]EG[Nle]STWS[Aib]RKK([AEEA-AEEA-γGlu-γGlu-γGlu-Stearoyl])-NH2) reads 89%; that for `CCCCCCCCCCCCCCCCCC(=O)N[C@@H](CCC(=O)N[C@@H](CCC(=O)N[C@@H](CCC(=O)NCCOCCOCC(=O)NCCOCCOCC(=O)NCCCC[C@H](NC(=O)[C@H](CCCCN)NC(=O)[C@H](CCCCN)NC(=O)[C@H](CCCNC(=N)N)NC(=O)C(C)(C)NC(=O)[C@H](CO)NC(=O)[C@H](Cc1c[nH]c2ccccc12)NC(=O)[C@@H](NC(=O)[C@H](CO)NC(=O)[C@H](CCC(=O)O)NC(=O)CNC(=O)[C@H](CCC(=O)O)NC(=O)C(C)(C)NC(=O)C(C)(C)NC(=O)[C@@H](NC(=O)[C@H](CCC(N)=O)NC(=O)[C@H](C)NC(=O)[C@H](CCCNC(=N)N)NC(=O)[C@@H](NC(=O)[C@H](CCCCN)NC(=O)[C@H](CCC(=O)O)NC(=O)[C@H](CCCNC(=N)N)NC(=O)CNC(=O)[C@H](CCC(=O)O)NC(=O)[C@H](CC(C)C)NC(C)=O)C(C)C)[C@@H](C)CC)[C@@H](C)O)C(N)=O)C(=O)O)C(=O)O)C(=O)O` [compound 68] (Ac-LEGREKVRAQI[Aib][Aib]EGESTWS[Aib]RKKK([AEEA-AEEA-γGlu-γGlu-γGlu-Stearoyl])-NH2), 94%.
With `CCCCCCCCCCCCCCCCCC(=O)N[C@@H](CCC(=O)N[C@@H](CCC(=O)N[C@@H](CCC(=O)NCCOCCOCC(=O)NCCOCCOCC(=O)NCCCC[C@H](NC(=O)[C@H](CCCCN)NC(=O)[C@H](CCCCN)NC(=O)[C@H](CCCNC(=N)N)NC(=O)C(C)(C)NC(=O)[C@H](CO)NC(=O)[C@H](Cc1c[nH]c2ccccc12)NC(=O)[C@@H](NC(=O)[C@H](CO)NC(=O)[C@H](CCCC)NC(=O)CNC(=O)[C@H](CCC(=O)O)NC(=O)C(C)(C)NC(=O)C(C)(C)NC(=O)[C@@H](NC(=O)[C@H](CCC(N)=O)NC(=O)C(C)(C)NC(=O)[C@H](CCCNC(=N)N)NC(=O)[C@@H](NC(=O)[C@H](CCCCN)NC(=O)[C@H](CCC(=O)O)NC(=O)[C@H](CCCNC(=N)N)NC(=O)CNC(=O)[C@H](CCC(=O)O)NC(=O)[C@H](CC(C)C)NC(C)=O)C(C)C)[C@@H](C)CC)[C@@H](C)O)C(N)=O)C(=O)O)C(=O)O)C(=O)O` [compound 69] (Ac-LEGREKVR[Aib]QI[Aib][Aib]EG[Nle]STWS[Aib]RKKK([AEEA-AEEA-γGlu-γGlu-γGlu-Stearoyl])-NH2), the Emax was 87%.
Take `CCCCCCCCCCCCCCCCCC(=O)N[C@@H](CCC(=O)N[C@@H](CCC(=O)N[C@@H](CCC(=O)NCCOCCOCC(=O)NCCOCCOCC(=O)NCCCC[C@H](NC(=O)[C@H](CCCCN)NC(=O)[C@H](CCCCN)NC(=O)[C@H](CCCNC(=N)N)NC(=O)C(C)(C)NC(=O)[C@H](CO)NC(=O)[C@H](Cc1c[nH]c2ccccc12)NC(=O)[C@@H](NC(=O)[C@H](CO)NC(=O)[C@H](CCC(N)=O)NC(=O)CNC(=O)[C@H](CCC(=O)O)NC(=O)C(C)(C)NC(=O)C(C)(C)NC(=O)[C@@H](NC(=O)[C@H](CCC(N)=O)NC(=O)[C@H](C)NC(=O)[C@H](CCCNC(=N)N)NC(=O)[C@@H](NC(=O)[C@H](CCCCN)NC(=O)[C@H](CCC(=O)O)NC(=O)[C@H](CCCNC(=N)N)NC(=O)CNC(=O)[C@H](CCC(=O)O)NC(=O)[C@H](CC(C)C)NC(C)=O)C(C)C)[C@@H](C)CC)[C@@H](C)O)C(N)=O)C(=O)O)C(=O)O)C(=O)O` [compound 70] (Ac-LEGREKVRAQI[Aib][Aib]EGQSTWS[Aib]RKKK([AEEA-AEEA-γGlu-γGlu-γGlu-Stearoyl])-NH2): the Emax was 86%.
For `CCCCCCCCCCCCCCCCCC(=O)N[C@@H](CCC(=O)N[C@@H](CCC(=O)N[C@@H](CCC(=O)NCCOCCOCC(=O)NCCOCCOCC(=O)NCCCC[C@H](NC(=O)[C@H](CCCCN)NC(=O)[C@H](CCCCN)NC(=O)[C@H](CCCNC(=N)N)NC(=O)C(C)(C)NC(=O)[C@H](CO)NC(=O)[C@H](Cc1c[nH]c2ccccc12)NC(=O)[C@@H](NC(=O)[C@H](CO)NC(=O)[C@H](CCCC)NC(=O)CNC(=O)[C@H](CCC(=O)O)NC(=O)C(C)(C)NC(=O)C(C)(C)NC(=O)[C@@H](NC(=O)[C@H](CCC(N)=O)NC(=O)[C@H](C)NC(=O)[C@H](CCCNC(=N)N)NC(=O)[C@@H](NC(=O)[C@H](CCCCN)NC(=O)[C@H](CCC(=O)O)NC(=O)[C@H](CCCNC(=N)N)NC(=O)CNC(=O)[C@H](CCC(=O)O)NC(=O)[C@H](CC(C)C)NC(C)=O)C(C)C)[C@@H](C)CC)[C@@H](C)O)C(N)=O)C(=O)O)C(=O)O)C(=O)O` [compound 71] (Ac-LEGREKVRAQI[Aib][Aib]EG[Nle]STWS[Aib]RKKK([AEEA-AEEA-γGlu-γGlu-γGlu-Stearoyl])-NH2), the Emax amounted to 87%.
Turning to `CCCCCCCCCCCCCCCCCC(=O)N[C@@H](CCC(=O)N[C@@H](CCC(=O)N[C@@H](CCC(=O)NCCOCCOCC(=O)NCCOCCOCC(=O)NCCCC[C@H](NC(=O)[C@H](CCCCN)NC(=O)[C@H](CCCCNC(C)=O)NC(=O)[C@H](CCCNC(=N)N)NC(=O)C(C)(C)NC(=O)[C@H](CO)NC(=O)[C@H](Cc1c[nH]c2ccccc12)NC(=O)[C@@H](NC(=O)[C@H](CO)NC(=O)[C@H](CCCC)NC(=O)CNC(=O)[C@H](CCC(=O)O)NC(=O)C(C)(C)NC(=O)C(C)(C)NC(=O)[C@@H](NC(=O)[C@H](CCCCNC(C)=O)NC(=O)[C@H](C)NC(=O)[C@H](CCCNC(=N)N)NC(=O)[C@@H](NC(=O)[C@H](CCCCN)NC(=O)[C@H](CCC(=O)O)NC(=O)[C@H](CCCNC(=N)N)NC(=O)CNC(=O)[C@H](CCC(=O)O)NC(=O)[C@H](CC(C)C)NC(C)=O)C(C)C)[C@@H](C)CC)[C@@H](C)O)C(N)=O)C(=O)O)C(=O)O)C(=O)O` [compound 72] (Ac-LEGREKVRAK(Ac)I[Aib][Aib]EG[Nle]STWS[Aib]RK(Ac)KK([AEEA-AEEA-γGlu-γGlu-γGlu-Stearoyl])-NH2), the EC50 was determined as 0.17 nM and the Emax amounted to 93%.

The values above are taken from patent US10988523B2, “Modified lipidated Relaxin B chain peptides and their therapeutic use” (Sanofi, priority 2018, dated 2021).
